Measurements from patent publication US20040138826A1, “Experimental design and data analytical methods for detecting and characterizing interactions and interaction thresholds on fixed ratio rays of polychemical mixtures and subsets thereof” (priority 2002, published 2004).
Values joined by “and” are separate entries in the source; they are usually repeats but may differ in a detail not shown here. Identical values can stand only once. “Also recorded” adds a separate entry of the source. Like-named read-outs stand apart in the source and are kept apart here.

Columns and labels:
healthy adult rats = settings: for Threshold Estimate: dose threshold for motor activity, threshold additivity model, SAR analysis; for Threshold Estimate / Mean Motor Activity Response: rats; for Mean Motor Activity Response: single chemical
Description: To motivate the use of these fixed-ratio mixture ray designs consider a study which examines exposure to environmentally relevant pesticides. The OP pesticides chosen for study, based on usage patterns (i.e. pesticides used on same or similar crops) and market share (i.e. highest volume pesticides), were acephate, diazinon, chlorpyrifos, dimethoate, and malathion. Motor activity, a count of the number of passes made across a central area, was used to assess toxicity in healthy adult rats. A full five-pesticide fixed-ratio ray, given by (0.040:0.002:0.031:0.102:0.825) for (acephate:diazinon:chlorpyrifos:dimethoate:malathion), was chosen based on relative dietary exposure estimates of each chemical as projected by the U.S. EPA Dietary Exposure Evaluation Model (DEEM).
Single chemical data were collected approximately 18 months prior to the data along the full fixed-ration ray.
Fixed-ratio ray designs were chosen to study interactions among combinations of multiple pesticides. The pesticides chosen for these studies, based on usage patterns (i.e., pesticides used on the same or similar crops) and market share (i.e., highest volume pesticides), were acephate, diazinon, chlorpyrifos, dimethoate, and malathion. Motor activity, a count of the number of passes made across a central area, was chosen to assess the toxicity of these pesticides in healthy adult rats. The fixed-ratio ray under study was chosen based on the relative dietary exposure estimates of each chemical as projected by the U.S. EPA Dietary Exposure Evaluation Model (DEEM) and is given by (0.040:0.002:0.031:0.102:0.825) for acephate, diazinon, chlorpyrifos, dimethoate, and malathion respectively.
The five-pesticide study described in the introduction is used to illustrate the sample size and power methods developed in Section 3. Due to the high potential of aggregate exposure to OP pesticides, researchers were initially interested in testing the hypothesis of additivity, given in (5), along the full five-pesticide fixed-ratio ray, given by (0.040:0.002:0.031:0.102:0.825) for ([…]), that represents relative dietary exposure estimates. Single chemical data were collected and used to estimate an additivity model along the ray (analysis not shown). Since, the motor activity response is a count variable it was assumed that V(m)=m and the log link function (McCullagh and Nelder, 1989) was used to fit the generalized linear additivity model described in Section 2. […] Eighty-six animals were considered. Fourteen animals were evaluated in the control group. Twelve animals each were evaluated at 10, 55, 100, 200, 300, and 450 mg/kg. Summary statistics for the single chemical and mixture data are provided in the appendix.
The five-pesticide study described in the introduction is used to illustrate the design methodology developed in the following sections. Due to the high potential for aggregate exposure to OP pesticides, researchers were initially interested in testing the hypothesis of additivity, given in (4), along the full five-pesticide fixed-ratio ray, given by (0.040:0.002:0.031:0.102:0.825) for (acephate:diazinon:chlorpyrifos:dimethoate:malathion). Since motor activity response is a count variable, it was assumed that V(μ)=μ and the log link function (McCullagh and Nelder, 1989) was used to fit the generalized linear additivity model given in (1). […] Eighty-six animals were considered. Fourteen animals were evaluated in the control group. Twelve animals each were evaluated at 10, 55, 100, 200, 300, and 450 mg/kg.

rats = settings: for effect when given alone on gait abnormality: single chemical data, rats
Description: The endpoint of interest is neurotoxicity in rats as measured by a gait score dichotomized to indicate presence or absence of a gait abnormality (i.e., incoordination, loss of balance, etc.). The fixed-ratio ray under study was chosen based on the relative dietary exposure estimates of each chemical as projected by the U.S. EPA Dietary Exposure Evaluation Model (DEEM) and is given by (0.040:0.002:0.031:0.825:0.102) for ACE, DIA, CPF, MAL, DIM, respectively. […] (Note: Such a strategy can be extended for identifying the impact of the unidentified fraction in a complex mixture.)
The biological endpoint of interest is an indicator of neurotoxicity based on evidence of the presence or absence of a gait abnormality (Moser, 1995). In order to appropriately constrain the probability of a response to be between 0 and 1, a logit link function was used, i.e., g(μ)=log(μ/(1−μ)). It was assumed throughout that the variance changes as a binomial random variable such that Var(Y)=τμ(1−μ) (e.g., McCullagh and Nelder, 1989).
The resulting mixture experiment consisted of a vehicle control (n=14), ‘positive controls’ for ACE alone (6 and 30 mg/kg; n=6, 14, respectively), CPF alone (10, 20, 30 mg/kg; n=6, 8, 6, respectively), DIAZ alone (50 and 125 mg/kg; n=6, 14, respectively), MAL alone (350 mg/kg; n=14), DIM alone (10, 25, 50 mg/kg; n=6, 8, 6, respectively), and six total dose mixture concentrations (10, 55, 100, 200, 300 and 450 mg/kg; n=12 rats per dose group for a total of 72 rats exposed to a mixture of the chemicals) at a fixed mixing ratio ray of (0.040:0.002:0.031:0.825:0.102) for (ACE:DIA:CPF:MAL:DIM). Similarly, the design for a second fixed-ratio ray was based on a reduced number of the pesticides (omitting MAL) with the remaining pesticides at the same relative proportions as in the ‘full’ mixture study. The experiment consisted of a vehicle control (n=8), positive controls (n=8 per group) for ACE (30 mg/kg), CPF (20 mg/kg), DIA (125 mg/kg), and DIM (25 mg/kg), and six total dose mixture concentrations (1.75, 9.6, 17.5, 35, 52.5, and 78.8 mg/kg; n=12 rats per dose group) at a fixed mixing ratio ray of (0.229:0.011:0.177:0.583) for (ACE:DIA:CPF:DIM). Casey et al (2003a,b) describe the motor activity data in the mixture of these five pesticides.

| SMILES | Threshold Estimate (healthy adult rats) | Mean Motor Activity Response (healthy adult rats; dose 10 mg/kg) | Mean Motor Activity Response (healthy adult rats; dose 30 mg/kg) | effect when given alone on gait abnormality (rats) | Mean Motor Activity Response (healthy adult rats; dose 5 mg/kg) | Mean Motor Activity Response (healthy adult rats; dose 25 mg/kg) | Mean Motor Activity Response (healthy adult rats; dose 50 mg/kg) | Mean Motor Activity Response (healthy adult rats; dose 75 mg/kg) | other results |
| --- | --- | --- | --- | --- | --- | --- | --- | --- | --- |
| COP(=O)(NC(C)=O)SC (centres unmarked) [Acephate, acephate] | 6.30 mg/kg | 165.88 | 108.75 | significant effect on a gait abnormality | – | – | – | – | Mean Motor Activity Response (healthy adult rats; dose 3 mg/kg): 200.13; Mean Motor Activity Response (healthy adult rats; dose 60 mg/kg): 58.25; Mean Motor Activity Response (healthy adult rats; dose 120 mg/kg): 33.25 |
| CCOP(=S)(OCC)Oc1nc(Cl)c(Cl)cc1Cl [Chlorpyrifos, chlorpyrifos] | 4.69 mg/kg | 178.31 and 172.13 | 80.13 | significant effect on a gait abnormality | 213.37 | 162.00 | 49.44 and 56.38 | – | Mean Motor Activity Response (healthy adult rats; dose 1 mg/kg): 213.13; Mean Motor Activity Response (healthy adult rats; dose 2 mg/kg): 192.75; Mean Motor Activity Response (healthy adult rats; dose 20 mg/kg): 157.13 |
| CCOP(=S)(OCC)Oc1cc(C)nc(C(C)C)n1 [Diazinon, diazinon] | 25.0 mg/kg | – | – | significant effect on a gait abnormality | 190.88 | 215.56 | 183.13 | 165.69 | Mean Motor Activity Response (healthy adult rats; dose 125 mg/kg): 152.00; Mean Motor Activity Response (healthy adult rats; dose 150 mg/kg): 76.5; Mean Motor Activity Response (healthy adult rats; dose 250 mg/kg): 61.25 |
| CNC(=O)CSP(=S)(OC)OC [Dimethoate, dimethoate] | 8.72 mg/kg | 188.63 | – | significant effect on a gait abnormality | 188.25 | 107.75 | 103.75 | 101.50 | – |
| CCOC(=O)CC(SP(=S)(OC)OC)C(=O)OCC (centres unmarked) [Malathion, malathion] | – | – | – | – | – | – | – | – | effect of malathion on the mixture, motor activity (healthy adult rats; SAR method, full vs reduced ray, p-value 0.068): marginal evidence that malathion has an effect on the mixture; Mean Motor Activity Response (healthy adult rats; dose 100 mg/kg): 201.5; Mean Motor Activity Response (healthy adult rats; dose 500 mg/kg): 203.75; effect of MAL on the mixture, gait abnormality (rats; adjusted comparison of full and reduced rays, listed as MAL): significantly (p=0.016) changes the shape of the dose response curve in the full ray; also recorded: interacts with at least some or all of the other four pesticides; also recorded: interacts with the other pesticides; effect when given alone on gait abnormality (rats; listed as MAL): not dose responsive |
